Calls of active or inactive are those of the source.
What was measured:
[1] = biological target: T1, Tyrosine-protein phosphatase non-receptor type 7 (Homo sapiens, UniProt P35236); assay type: functional
T1 sequence (P35236 whole entry): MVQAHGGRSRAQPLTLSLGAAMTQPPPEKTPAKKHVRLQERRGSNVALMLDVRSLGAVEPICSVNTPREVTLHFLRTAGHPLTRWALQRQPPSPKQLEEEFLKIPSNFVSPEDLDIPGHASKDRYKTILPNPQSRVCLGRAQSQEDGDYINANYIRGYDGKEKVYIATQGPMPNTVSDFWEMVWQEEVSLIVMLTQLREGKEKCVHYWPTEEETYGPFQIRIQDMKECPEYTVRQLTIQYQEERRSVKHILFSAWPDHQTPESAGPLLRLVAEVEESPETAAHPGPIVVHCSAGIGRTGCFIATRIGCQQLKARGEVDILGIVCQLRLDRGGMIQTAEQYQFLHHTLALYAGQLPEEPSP

[2] = biological target: T2, Zinc finger protein mex-5 (Caenorhabditis elegans, UniProt Q9XUB2); test: MEX-5/TCR-2 RNA interaction inhibitors, dose response, biochemical, C. elegans, fluorescence polarization (AID 1960)
T2 sequence (Q9XUB2 whole entry): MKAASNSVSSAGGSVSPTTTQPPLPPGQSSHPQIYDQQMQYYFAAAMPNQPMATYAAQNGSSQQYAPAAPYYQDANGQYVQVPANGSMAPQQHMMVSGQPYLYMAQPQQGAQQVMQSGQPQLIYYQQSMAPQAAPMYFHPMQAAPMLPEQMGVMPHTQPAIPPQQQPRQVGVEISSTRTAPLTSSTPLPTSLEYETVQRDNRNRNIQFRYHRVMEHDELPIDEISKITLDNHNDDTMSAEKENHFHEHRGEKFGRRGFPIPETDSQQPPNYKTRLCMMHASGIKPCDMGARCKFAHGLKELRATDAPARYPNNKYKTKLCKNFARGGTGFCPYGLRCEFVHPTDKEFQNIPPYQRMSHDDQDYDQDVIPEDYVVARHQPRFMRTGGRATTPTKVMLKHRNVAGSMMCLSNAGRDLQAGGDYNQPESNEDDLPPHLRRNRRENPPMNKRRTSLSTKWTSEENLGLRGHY

[3] = biological target: Small ubiquitin-related modifier 2 (Homo sapiens, UniProt P61956); test: SUMO2–SIM peptide binding inhibitors, dose response, selectivity assay for SUMO1 interaction inhibitor project, biochemical, fluorescence polarization, uHTS hits (AID 624385); assay type: functional; conditions: read-out: IC50_Mean
[4] = biological target: T3, RNA-binding protein pos-1 (Caenorhabditis elegans, UniProt G5EF15); test: inhibitors of POS-1/mex-3 RNA binding, dose response, biochemical, fluorescence polarization (AID 1964);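 note: purified POS-1 fused to maltose binding protein made in E. coli; potency of compounds blocking POS-1 binding to fluorescent RNA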
T3 sequence (G5EF15 whole entry): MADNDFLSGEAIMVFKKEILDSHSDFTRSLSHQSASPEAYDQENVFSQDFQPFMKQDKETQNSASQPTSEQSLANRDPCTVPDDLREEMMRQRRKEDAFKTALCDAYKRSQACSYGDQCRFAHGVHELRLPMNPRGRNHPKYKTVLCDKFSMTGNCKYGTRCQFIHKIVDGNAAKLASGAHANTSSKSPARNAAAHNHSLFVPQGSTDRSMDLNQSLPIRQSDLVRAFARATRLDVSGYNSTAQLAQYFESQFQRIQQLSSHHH

Genome polyprotein = Genome polyprotein (dengue virus type 2, UniProt P29990); test: Dengue-2 NS5 methyltransferase inhibitors, primary screen, biochemical, confirmation dose response (AID 588689); assay type: functional
[5] = biological target: T4, Sentrin-specific protease 8 (Homo sapiens, UniProt Q96LD8); assay type: functional
T4 sequence (Q96LD8 whole entry): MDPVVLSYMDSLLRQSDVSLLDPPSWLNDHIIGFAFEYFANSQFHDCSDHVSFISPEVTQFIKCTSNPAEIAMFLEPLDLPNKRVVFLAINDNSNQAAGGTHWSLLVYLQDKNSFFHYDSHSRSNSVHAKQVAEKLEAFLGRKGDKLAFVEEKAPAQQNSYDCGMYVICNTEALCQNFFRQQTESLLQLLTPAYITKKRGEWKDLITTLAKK

[6] = biological target: T4, Sentrin-specific protease 8; assay type: functional; remark: listed apart in the source
[7] = biological target: T5, Replicative DNA helicase DnaB (Mycobacterium tuberculosis, UniProt P9WMR3); test: DnaB intein splicing inhibitors, dose response, biochemical, cell-free fluorescence (AID 449749); assay type: functional
T5 sequence (P9WMR3 whole entry): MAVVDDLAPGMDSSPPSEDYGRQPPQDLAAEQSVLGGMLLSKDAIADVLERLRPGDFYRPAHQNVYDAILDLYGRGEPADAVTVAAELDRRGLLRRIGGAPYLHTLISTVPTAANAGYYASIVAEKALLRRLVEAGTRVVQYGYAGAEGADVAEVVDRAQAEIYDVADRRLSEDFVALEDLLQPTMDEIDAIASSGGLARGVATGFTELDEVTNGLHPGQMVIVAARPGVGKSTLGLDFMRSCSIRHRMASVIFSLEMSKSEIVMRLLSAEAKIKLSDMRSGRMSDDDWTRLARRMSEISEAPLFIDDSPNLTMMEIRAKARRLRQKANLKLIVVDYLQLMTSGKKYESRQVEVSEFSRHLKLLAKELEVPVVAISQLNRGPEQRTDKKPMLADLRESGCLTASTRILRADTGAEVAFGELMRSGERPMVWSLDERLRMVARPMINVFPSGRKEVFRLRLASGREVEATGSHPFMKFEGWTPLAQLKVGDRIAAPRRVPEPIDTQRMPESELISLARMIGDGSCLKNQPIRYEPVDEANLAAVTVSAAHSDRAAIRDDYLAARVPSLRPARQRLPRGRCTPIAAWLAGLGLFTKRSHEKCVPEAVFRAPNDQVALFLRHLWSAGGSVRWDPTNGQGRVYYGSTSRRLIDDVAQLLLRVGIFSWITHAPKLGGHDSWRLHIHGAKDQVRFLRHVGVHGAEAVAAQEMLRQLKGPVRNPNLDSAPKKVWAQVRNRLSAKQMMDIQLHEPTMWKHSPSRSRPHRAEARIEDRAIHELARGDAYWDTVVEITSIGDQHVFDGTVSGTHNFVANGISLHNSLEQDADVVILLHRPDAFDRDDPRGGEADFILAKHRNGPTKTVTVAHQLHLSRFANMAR

Sequence of Small ubiquitin-related modifier 2 (P61956 whole entry, the tested form may be a part): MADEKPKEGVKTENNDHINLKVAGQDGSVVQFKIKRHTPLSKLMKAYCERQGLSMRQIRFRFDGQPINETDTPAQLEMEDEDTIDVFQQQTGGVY
Sequence of Genome polyprotein (P29990 2492-3391 limits assumed): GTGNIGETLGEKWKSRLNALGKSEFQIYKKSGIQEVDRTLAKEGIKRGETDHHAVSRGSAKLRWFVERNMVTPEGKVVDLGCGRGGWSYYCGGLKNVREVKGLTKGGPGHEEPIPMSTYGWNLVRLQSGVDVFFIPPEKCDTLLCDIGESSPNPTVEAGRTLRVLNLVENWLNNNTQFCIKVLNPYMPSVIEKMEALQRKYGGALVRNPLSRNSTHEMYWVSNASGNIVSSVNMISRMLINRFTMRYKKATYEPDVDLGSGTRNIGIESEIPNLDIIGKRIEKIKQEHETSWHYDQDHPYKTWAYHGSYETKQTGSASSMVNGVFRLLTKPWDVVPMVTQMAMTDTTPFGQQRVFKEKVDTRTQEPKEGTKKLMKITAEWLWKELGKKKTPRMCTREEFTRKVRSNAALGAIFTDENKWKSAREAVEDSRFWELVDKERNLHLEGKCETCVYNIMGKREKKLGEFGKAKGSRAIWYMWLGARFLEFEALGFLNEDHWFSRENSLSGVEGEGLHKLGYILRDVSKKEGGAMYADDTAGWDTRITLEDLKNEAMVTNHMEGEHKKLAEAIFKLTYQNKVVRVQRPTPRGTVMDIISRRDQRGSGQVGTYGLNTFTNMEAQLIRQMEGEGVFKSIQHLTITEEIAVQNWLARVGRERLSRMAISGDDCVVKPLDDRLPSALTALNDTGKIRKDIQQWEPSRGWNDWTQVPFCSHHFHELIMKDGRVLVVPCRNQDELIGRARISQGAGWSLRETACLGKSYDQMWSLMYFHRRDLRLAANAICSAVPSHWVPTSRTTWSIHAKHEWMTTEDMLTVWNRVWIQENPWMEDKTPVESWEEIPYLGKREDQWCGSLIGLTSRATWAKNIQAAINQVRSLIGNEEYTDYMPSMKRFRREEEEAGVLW

Compound: Nc1ccc2nc3c(O)nc(S)nc3nc2c1
- IC50 [1]: > 79.4 µM (inactive)
- EC50 [2]: 1.67 µM (inconclusive)
- IC50 [3]: 55.2 µM (inactive)
- EC50 [4]: 7.85 µM (inconclusive)

Compound: Cc1oc2c(c1C(=O)c1ccccc1)C(=O)C(=O)c1ccccc1-2
- IC50 (Genome polyprotein): 48.4 µM (active)

Compound: O=C1CCCC2=C1C1(O)C(=O)c3ccccc3C1(O)O2 (centres undefined)
- IC50 [5]: 6.65 µM (active)
- IC50 [6]: 2.52 µM (active)
- AC50 [7]: 5.49 µM (active)

Compound: CSc1ccc(C=NNc2ccc(S(=O)(=O)Nc3ccccc3C(=O)O)cc2[N+](=O)[O-])cc1
- IC50 [3]: 2.38 µM (active)

Compound: O=C1C(Cl)=C(NCCN2CCCCC2)C(=O)c2ccccc21
- AC50 [7]: 14 µM (active)

Compound: O=C(O)COc1ccc(/C=N/NC(=O)c2ccc(-c3csc(Nc4ccc(Cl)cc4)n3)cc2)cc1
- IC50 [1]: < 1.24 µM (active)

Compound: COc1cc(NCCCNC(C)C)c2nccc(C)c2c1
- IC50 [5]: 1.09 µM (active)
- IC50 [6]: 3.89 µM (active)

Compound: CC(/C=C1\SC(=S)N(NS(=O)(=O)c2ccccc2)C1=O)=C\c1ccccc1
- IC50 (Genome polyprotein): 29.3 µM (active)

— ChEMBL document CHEMBL1201862, “PubChem BioAssay data set” (2004)
